What was measured:
Assay type in all cases: in vivo, human
[1] = system: acute pain in the left side of their neck; experiment: Example 11: acute neck pain; conditions: 1.5% in water: propylene glycol 8:2, topical to neck
Text: A subject who had shoveled heavy snow all day, throwing the snow mostly to left, upon arising from bed the next morning experienced acute pain in the left side of their neck that intensified as they attempted to move their head in any direction.

bunion on right foot = experiment: Example 21: subcutaneous injection over bunion; conditions: weekly subcutaneous injections of 1.5% aqueous solution
Text: A subject presented with bunion on right foot that has been enlarging over the past decade. […] Weekly injections will be continued for another month or two to determine whether complete resolution will be achieved.

thermal burns = experiment: Example 22: pain of thermal burns, topical; conditions: for relief of burn pain: person
Text: One subject spilled boiling hot water on their left hand. Within a couple hours pain was intense. They then applied 4% solution of N-acetyl ethyl creatinate (C15) dissolved in water: ethanol: propylene glycol 5:3:2 which they had been using to relieve pain over a lateral meniscus. […] Such application was continued over the next several days until the burn pain disappeared spontaneously.
A second subject burned their forearm where they accidentally touched the hot oven rack. They immediately applied 9% solution of N-acetyl ethyl creatinate (C15) dissolved in water: ethanol: propylene glycol 5:3:2 that they were using for topical treatment of their rheumatoid arthritis. […] Repeated application were applied over the next 3 days, until the burn pain spontaneously ceased.

painful right elbow = experiment: Example 24: osteoarthritis, elbow
Protocol: A subject presented with a history of painful right elbow for several weeks. They were provided with a topical solution of C15 8% in WP 82.
A subject with a history of right elbow for several months applied the above same solution to the elbo
On three other occasions, C15 1.5% aqueous solution 1 ml was injected subcutaneously in two lateral sites of the elbow and one site over extensor part of the elbow.

poison ivy dermatitis = experiment: Example 36: poison ivy dermatitis itch
Protocol: A subject developed poison ivy dermatitis of their forearms about 18 hours after pruning bushes. Itch was intense at 24 hours when they applied C15 10% in a lotion made up of hydrophilic ointment USP 35% diluted with 65% water. […] Duration of itch relief next was for about 10 hours and the next for 12-15 hours. Relief was longer and longer from subsequent applications. Signs and symptoms of dermatitis were gone at 4 days.

CCOC(=O)CN(C)C(N)=NC(C)=O [Compound C15, N-acetyl ethyl creatinate]
time to pain relief [1]: ≤ 2 min | extent of pain relief ([1]; person): neck pain subsided completely and did not return | change of bunion (bunion on right foot): distinct resolution in mass | relief of burn pain (thermal burns; 4% in water: ethanol: propylene glycol 5:3:2, topical, hand): immediate relief of the burn pain | duration of relief (thermal burns; 4% solution): 4 to 5 h | relief of burn pain (thermal burns; 9% in water: ethanol: propylene glycol 5:3:2, topical, forearm): Burn pain was completely instantly relieved | duration of relief (thermal burns; 9% solution): 4 to 5 h | extent of pain relief (painful right elbow; 1.5% aqueous solution 1 ml subcutaneous, three sites of elbow, person): complete relief of pain | duration of relief (painful right elbow; 1.5% subcutaneous): 24 to 30 h | time to pain relief (painful right elbow; 1.5% subcutaneous): within an hour | relief of pain (painful right elbow; 8% in WP 82, topical multiple times, person): No pain relieve was experienced | duration of relief (painful right elbow; 8% in WP 82, topical, person): 5 to 6 h | relief of pain (painful right elbow; 8% in WP 82, topical, person): relieved pain instantaneously completely | relief of itch (poison ivy dermatitis; 10% in lotion (hydrophilic ointment USP 35%, water 65%), forearms): Relief of itch was immediate | duration of itch relief (poison ivy dermatitis; first application): about 6 hours | time until signs and symptoms of dermatitis were gone (poison ivy dermatitis; repeated applications): 4 days | duration of itch relief (poison ivy dermatitis; second application): about 10 hours | duration of itch relief (poison ivy dermatitis; third application): 12 to 15 h

— patent US20230218555A1, “CREATINE, ITS DERIVATIVES, COMPOSITIONS AND METHODS OF USE THEREOF” (priority 2021, published 2023)
